The source of these data is patent US10351553B2, “Potassium channel modulators” (Cadent Therapeutics, Inc., priority 2017, dated 2019).

≈ marks a conversion by molar mass, not a printed value.

The nature of series [1]: Brain free fraction by equilibrium dialysis in rat brain tissue homogenate. The format is in vitro ADME. The conditions noted are these: 10% rat brain tissue homogenate, Tables 2 and 3. As for the experimental part:
The extent to which compounds modulate SK2 channels in vivo is expressed as % SK2 SC100, which is the ratio of the concentration of the drug free in the brain to the measured potency of the compound on the SK2 channel. It is calculated as follows: CFB=CMB×BFF, where CMB is the concentration of compound measured by liquid chromatography mass spectrometry from brains harvested immediately following tremor recording (Table 1, “Measured Brain Concentration”). CFB is the amount of free compound not complexed with protein and therefore free to interact with the SK2 channel (Table 1, “Calculated Free Brain Concentration”). BFF is average free fraction of compound as measured by equilibrium dialysis in separate experiments (1 uM test concentration incubated in 10% rat brain tissue homogenate for 5 hours at 37° C.) (Table 1, “Brain Free Fraction”). Free drug in brain available to interact with SK2 channels (CFB) is arrived at by multiplying the measured total brain level (CMB) by the average free fraction (BFF).
A general note: In equilibrium dialysis only unbound substance equilibrates across the membrane.

Series [2] in a line: Aqueous (kinetic) solubility, shake-flask, phosphate buffer pH 7.4. The format is physicochemical. The note with it: 23 °C, kinetic from dmso stock, phosphate buffer pH 7.4, 16 hours at room temperature. As for the experimental part: Aqueous solubility (kinetic solubility) tests of the compounds were performed in phosphate buffer saline (pH 7.4) measured by shake-flask method. In this assay, DMSO stock solution of test compound is added to buffer followed by equilibration (shaking), filtration and determination of soluble amount by HPLC-UV Conditions used in the assay are summarized below.

Series [3] concerns the target T1, SK2 channels (Homo sapiens, UniProt Q9H2S1).
T1 construct: expressed in transfected cells; host or cells: HEK293
Put plainly: Whole-cell patch-clamp of SK2 current in HEK293 cells expressing SK2 channels. The note with it: Table 2; concentration that produces doubling of channel current; averages from later experiments. The format is cell-based. As for the experimental part: The biological activity was determined as follows. The ionic current through small-conductance Ca^2+-activated K^+ channels (SK channels, subtype 2) was measured using the whole-cell configuration of the patch-clamp technique in a patch-clamp set-up using HEK293 tissue culture cells expressing SK2 channels as described in Hougaard et al., British Journal of Pharmacology 151, 655-665, May 8, 2007, the entire teachings of which are incorporated herein by reference. In one aspect, a compound is defined to be an SK Positive Allosteric Modulator (PAM) if the compound increases current in this assay, for example, if the SC100 value of the compound is less than or equal to 10 μM as determined by this assay. The SC100 value is defined to be the concentration of compound that increases the basal current by 100%.

Turning to `Cc1csc(-c2nc(NC3CCC(F)(F)CC3)cc([C@H](C)O)n2)n1` (single isomer, unassigned) [Compound 5], the fraction unbound (in general, free concentration divided by total concentration) at 5 h, 1 uM in series [1] turned out to be 0.042. The solubility (kinetic) (in general, solubility judged after dilution from a stock solution rather than from solid) at 16 h in series [2] is 80.3 µg/mL (≈ 227 µM). In the same order, the values of `Cc1csc(-c2nc(NC3CCC(F)(F)CC3)cc([C@@H](C)O)n2)n1` (single isomer, unassigned) [Compound 6] are 0.0431 and 66.7 µg/mL (≈ 188 µM). With `Cc1ccn(-c2nc(N[C@@H]3CCCC[C@H]3F)cc(N3CCOCC3)n2)n1` [Comparator B, reference compound], the “SK2 potency (SC100)” value in series [3] turned out to be 5.8 µM.

As for `Cc1cc(C)n(-c2nc(Nc3ccc(Cl)cc3)cc(N3CCOCC3)n2)n1` [Comparator C, reference compound], in series [1], the fraction unbound at 5 h, 1 uM was 0.0016. This molecule returned a kinetic solubility at 16 h in series [2] of 1 µg/mL (≈ 2.6 µM). In the same order, the values of `COc1cc(NC2CCC(F)(F)CC2)nc(-n2nc(C)cc2C)n1` [Compound 2, N-(4,4-difluorocyclohexyl)-2-(3,5-dimethyl-1H-pyrazol-1-yl)-6-methoxypyrimidin-4-amine] are 0.0276 and 31 µg/mL (≈ 91.9 µM). In the same order, the values of `COc1cc(NC2CCC(F)(F)CC2)nc(-c2nc(C)cs2)n1` [Compound 3, N-(4,4-difluorocyclohexyl)-6-methoxy-2-(4-methylthiazol-2-yl) pyrimidin-4-amine] are 0.0269 and 70.9 µg/mL (≈ 208 µM). For `FC1(F)CCC(Nc2cc(N3CCOCC3)nc(-n3ccc(C4CC4)n3)n2)CC1` [Compound 7, 2-(3-cyclopropyl-1H-pyrazol-1-yl)-N-(4,4-difluorocyclohexyl)-6-morpholinopyrimidin-4-amine] the same measures were 0.0155 and 49.7 µg/mL (≈ 123 µM).
